Source: patent US20130190268A1, “BIOTINYLATED POLYSACCHARIDES HAVING AN ANTITHROMBOTIC ACTIVITY AND IMPROVED METABOLIC STABILITY” (SANOFI, priority 2010, published 2013)
Where a name gives a salt, the structure may show the parent alone.

Assays:
biotinidase = target: T1, biotinidase (Homo sapiens, UniProt P43251); assay: Metabolic stability in human plasma medium at pH 6.0 with respect to biotinidase activity; assay type: in vitro ADME; details: pooled human plasma, pH 6.0, 1 μM, 37° C., LC/MS-MS
T1 construct: Ten individual batches of human plasma originating from 5 men and 5 women; from tissue; host or cells: pooled human plasma (5 men, 5 women), sodium citrate
T1 sequence (P43251 22-523): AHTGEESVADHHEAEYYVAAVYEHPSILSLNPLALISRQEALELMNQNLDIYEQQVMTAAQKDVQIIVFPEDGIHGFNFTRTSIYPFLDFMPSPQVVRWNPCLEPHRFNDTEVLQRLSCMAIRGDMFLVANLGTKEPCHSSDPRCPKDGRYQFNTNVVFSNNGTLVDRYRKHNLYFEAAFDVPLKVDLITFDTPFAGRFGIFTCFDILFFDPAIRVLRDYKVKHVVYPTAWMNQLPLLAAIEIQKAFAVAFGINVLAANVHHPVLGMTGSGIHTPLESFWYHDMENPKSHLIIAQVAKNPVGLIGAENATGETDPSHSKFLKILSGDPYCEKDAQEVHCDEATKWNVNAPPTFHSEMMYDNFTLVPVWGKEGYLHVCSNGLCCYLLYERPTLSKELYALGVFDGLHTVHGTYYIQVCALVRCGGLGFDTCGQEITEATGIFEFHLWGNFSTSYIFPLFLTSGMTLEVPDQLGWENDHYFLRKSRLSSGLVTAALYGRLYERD
Description: The metabolic stability of the compounds according to the invention with respect to biotinidase activity was studied on human plasma having been sampled on sodium citrate as anticoagulant. Ten individual batches of human plasma originating from 5 men and 5 women, constituting the evaluation matrix, were used and pooled in order to evaluate the metabolic stability of the compounds. The human plasma was incubated under the following conditions: • incubation medium (freshly prepared): 740 μl of 54 mM of sodium phosphate buffer, pH 6.0, containing 1.08 mM of disodium EDTA and 4.3 mM of cysteamine hydrochloride, • human plasma: 40 μl • concentrations of the compounds to be studied: 1 μM • incubation time: 24 hours • incubation temperature: 37° C.
The reaction is initiated by adding the compound to be studied, after a 10-minute period of preincubation of the plasma and of the incubation medium. At the end of the incubation period (24 hours), the reaction is stopped.
The compounds according to the invention are quantified according to a specific LC/MS-MS method.
The metabolization of each compound studied is measured by monitoring the disappearance of the unchanged product, the concentrations being determined for each incubation sample at time 0 hours and at time 24 hours, and the percentage metabolization being calculated according to the following formula: […]
The terms [compound at T 24H] and [compound at T 0H] correspond to the concentration of the compound to be studied in the reactive medium after 24 hours and before the beginning of the reaction, respectively.

avidin = avidin (Gallus gallus, UniProt P02701); assay: Neutralization with avidin: avidin-coated beads, centrifugation, anti-factor Xa activity assayed in supernatant; assay type: binding; details: after centrifugation
Chain of avidin (P02701 25-152, species assumed): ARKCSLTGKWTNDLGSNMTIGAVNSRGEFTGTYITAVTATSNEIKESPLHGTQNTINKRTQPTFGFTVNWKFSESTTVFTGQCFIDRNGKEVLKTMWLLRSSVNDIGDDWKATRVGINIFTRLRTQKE
Description: The resulting mixture is centrifuged and the anti-factor Xa activity is assayed in the supernatant.

[1] = target: coagulation factor Xa, in the presence of antithrombin (Homo sapiens, UniProt P01008); assay: Antithrombin-dependent anti-factor Xa activity (in vitro inhibition of coagulation factor Xa); assay type: biochemical; details: read-out: IC50 (dose enabling 50% inhibition), anti-Xa activity (converted)
Chain of coagulation factor Xa, in the presence of antithrombin (P01008 33-464): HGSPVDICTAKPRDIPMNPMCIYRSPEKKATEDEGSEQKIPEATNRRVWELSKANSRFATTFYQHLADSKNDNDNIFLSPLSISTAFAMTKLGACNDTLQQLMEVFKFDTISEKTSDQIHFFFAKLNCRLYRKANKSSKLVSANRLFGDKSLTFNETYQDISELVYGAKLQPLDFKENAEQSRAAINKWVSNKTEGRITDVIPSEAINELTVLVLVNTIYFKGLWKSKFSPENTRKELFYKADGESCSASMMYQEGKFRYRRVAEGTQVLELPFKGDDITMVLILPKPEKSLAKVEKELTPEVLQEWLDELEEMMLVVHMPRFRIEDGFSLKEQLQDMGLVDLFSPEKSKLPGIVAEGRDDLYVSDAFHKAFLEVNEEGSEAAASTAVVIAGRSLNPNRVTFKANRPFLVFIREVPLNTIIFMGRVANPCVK
Description: The activity of the compounds according to the invention was studied in an in vitro model of inhibition of coagulation factor Xa, in the presence of antithrombin (antithrombin-dependent anti-factor Xa activity), as described by J.-M. Herbert et al., Blood, 1998, 91, 4197-4205.

Structure (SMILES) | metabolization percentage (compound metabolized after 24 h) (biotinidase) [%] | anti-factor Xa activity in the supernatant (avidin; 0.00005 μg product/μg avidin) [%] | anti-factor Xa activity in the supernatant (avidin; 0.0001 μg product/μg avidin) [%] | anti-factor Xa activity in the supernatant (avidin; 0.001 μg product/μg avidin) [%] | anti-factor Xa activity in the supernatant (avidin; 0.01 μg product/μg avidin) | IC50 [1] [nM]
COC1OC(COS(=O)(=O)O)C(OC2OC(C(=O)O)C(OC3OC(COS(=O)(=O)O)C(OC4OC(C(=O)O)C(OC5OC(COS(=O)(=O)O)C(OC)C(OC)C5NC(=O)CCCCCN(C)C(=O)CCCCC5SCC6NC(=O)NC65)C(OC)C4OC)C(OS(=O)(=O)O)C3OS(=O)(=O)O)C(OC)C2OC)C(OS(=O)(=O)O)C1OS(=O)(=O)O [Compound 3, Methyl (2-deoxy-3,4-di-O-methyl-2-{[6-(methyl{5-[(3aS,4S,6aR)-2-oxohexahydro-1H-thieno[3,4-d]imidazol-4-yl]pentanoyl}amino)hexanoyl]amino}-6-O-sulfonato-α-D-glucopyranosyl)-(1→4)-(2,3-di-O-methyl-β-D-glucopyranosyluronate)-(1→4)-(2,3,6-tri-O-sulfonato-α-D-glucopyranosyl)-(1→4)-(2,3-di-O-methyl-α-L-idopyranosyluronate)-(1→4)-2,3,6-tri-O-sulfonato-α-D-glucopyranoside, sodium salt] | 0.8 | 0.7 ± 2.4 | 1.2 ± 0.6 | 1.8 ± 0.2 | 0.9%^(1) | 9.53
COC1OC(COS(=O)(=O)O)C(OC2OC(C(=O)O)C(OC3OC(COS(=O)(=O)O)C(OC4OC(C(=O)O)C(OC5OC(COS(=O)(=O)O)C(OC)C(OC)C5NC(=O)CCCCCN(C)CCCCCC5SCC6NC(=O)NC65)C(OC)C4OC)C(OS(=O)(=O)O)C3OS(=O)(=O)O)C(OC)C2OC)C(OS(=O)(=O)O)C1OS(=O)(=O)O [Compound 2, Methyl (2-deoxy-3,4-di-O-methyl-2-{[6-(methyl{5-[(3aS,4S,6aR)-2-oxohexahydro-1H-thieno[3,4-d]imidazol-4-yl]pentyl}amino)hexanoyl]amino}-6-O-sulfonato-α-D-glucopyranosyl)-(1→4)-(2,3-di-O-methyl-β-D-glucopyranosyluronate)-(1→4)-(2,3,6-tri-O-sulfonato-α-D-glucopyranosyl)-(1→4)-(2,3-di-O-methyl-α-L-idopyranosyluronate)-(1→4)-2,3,6-tri-O-sulfonato-α-D-glucopyranoside, sodium salt] | −3.3 | 4.9 ± 1.4 | 3.0 ± 0.7 | 5.2 ± 0.5 | 4.1 ± 0.2% | 9.93
COC1OC(COS(=O)(=O)O)C(OC2OC(C(=O)O)C(OC3OC(COS(=O)(=O)O)C(OC4OC(C(=O)O)C(OC5OC(COS(=O)(=O)O)C(OC)C(OC)C5NC(=O)CCCCCNC(=O)CCCCC5SCC6NC(=O)NC65)C(OC)C4OC)C(OS(=O)(=O)O)C3OS(=O)(=O)O)C(OC)C2OC)C(OS(=O)(=O)O)C1OS(=O)(=O)O (stereo not drawn) [Idrabiotaparinux, idrabiotaparinux, reference compound] | 15.9 | 1.2 ± 0.0 | 2.5 ± 1.1 | 2.6 ± 0.3 | 5.2 ± 3.4% | 9.49
COC1OC(COS(=O)(=O)O)C(OC2OC(C(=O)O)C(OC3OC(COS(=O)(=O)O)C(OC4OC(C(=O)O)C(OC5OC(COS(=O)(=O)O)C(OC)C(OC)C5NC(=O)CCCCNC(=O)NCCCCC5SCC6NC(=O)NC65)C(OC)C4OC)C(OS(=O)(=O)O)C3OS(=O)(=O)O)C(OC)C2OC)C(OS(=O)(=O)O)C1OS(=O)(=O)O [Compound 4, Methyl (2-deoxy-3,4-di-O-methyl-2-({5-[({4-[(3aS,4S,6aR)-2-oxohexahydro-1H-thieno[3,4-d]imidazol-4-yl]butyl}carbamoyl)amino]pentanoyl}amino)-6-O-sulfonato-α-D-glucopyranosyl)-(1→4)-(2,3-di-O-methyl-β-D-glucopyranosyluronate)-(1→4)-(2,3,6-tri-O-sulfonato-α-D-glucopyranosyl)-(1→4)-(2,3-di-O-methyl-α-L-idopyranosyluronate)-(1→4)-2,3,6-tri-O-sulfonato-α-D-glucopyranoside, sodium salt] | 5.3 | 3.6 ± 1.2 | 2.5 ± 2.3 | 4.5 ± 0.8 | 2.4 ± 0.0% | 9.22
COC1OC(COS(=O)(=O)O)C(OC2OC(C(=O)O)C(OC3OC(COS(=O)(=O)O)C(OC4OC(C(=O)O)C(OC5OC(COS(=O)(=O)O)C(OC)C(OC)C5NC(=O)CCCCCOCCCCCC5SCC6NC(=O)NC65)C(OC)C4OC)C(OS(=O)(=O)O)C3OS(=O)(=O)O)C(OC)C2OC)C(OS(=O)(=O)O)C1OS(=O)(=O)O [Compound 1, Methyl (2-deoxy-3,4-di-O-methyl-2-{[6-({5-[(3aS,4S,6aR)-2-oxohexahydro-1H-thieno[3,4-d]imidazol-4-yl]pentyl}oxy)hexanoyl]amino}-6-O-sulfonato-α-D-glucopyranosyl)-(1→4)-(2,3-di-O-methyl-β-D-glucopyranosyluronate)-(1→4)-(2,3,6-tri-O-sulfonato-α-D-glucopyranosyl)-(1→4)-(2,3-di-O-methyl-α-L-idopyranosyluronate)-(1→4)-2,3,6-tri-O-sulfonato-α-D-glucopyranoside, sodium salt] | 1.7 | 1.3 ± 0.9 | 5.6 ± 1.0 | 6.0 ± 0.2 | 6.8 ± 2.0% | 10
